Results as given in patent publication US5418150A, “Method of cleaving DNA” (priority 1993, dated 1995).
Where two headings read alike, the source gives them in different places.

Key:
Nae I [1] = molecular target: T1, Nae I (Lentzea aerocolonigenes, UniProt P50187); experiment: Activation of Nae I cleavage of M13mp18 RFI DNA; format: biochemical, Nocardia aerocolonigenes; design: key to Activation of Nae I cleavage of M13mp18 RF1 DNA: ++++: full activation; ++: about 50% activation; -: no activation
T1 sequence (P50187 1-317): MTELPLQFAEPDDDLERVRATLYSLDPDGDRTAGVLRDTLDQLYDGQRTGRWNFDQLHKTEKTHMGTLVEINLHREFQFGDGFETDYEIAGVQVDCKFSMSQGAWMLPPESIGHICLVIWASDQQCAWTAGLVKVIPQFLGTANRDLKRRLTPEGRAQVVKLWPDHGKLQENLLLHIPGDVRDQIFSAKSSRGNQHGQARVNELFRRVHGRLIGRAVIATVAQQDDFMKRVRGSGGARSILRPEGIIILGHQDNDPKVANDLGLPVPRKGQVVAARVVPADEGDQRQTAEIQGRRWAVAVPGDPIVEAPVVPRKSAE

Nae I [2] = molecular target: T1, Nae I; conditions: 2 mM spermidine, SV40 DNA 2.9 nM, 1.1 units Nae I, 1 hour 37° C.
Nae I [3] = molecular target: T1, Nae I; experiment: biochemical; conditions: 1 h, read-out: Increase in Nae I cleavage of SV40 slow site

In the case of “GCCGGC (chemistry not given here) [Oligonucleotide duplex 7]”, the “Activation of Nae I cleavage of M13mp18 RF1 DNA” value (“Activation … of M13mp18 RF1 DNA” for short) (Nae I [1]; compared to cleavage caused by an equal concentration of pBR322 Nae I sites) is reported as “-”.

For “CTGGTGGTGGGCGCCGGC (chemistry not given here) [Oligonucleotide duplex 5]”, the “Activation … of M13mp18 RF1 DNA” value (Nae I [1]) was “-”.

For “GCGCCGGCGG (chemistry not given here) [Oligonucleotide duplex 4]”, the “Activation … of M13mp18 RF1 DNA” value (Nae I [1]) was “-”.

“GCCGGCGGTGTGGGCAGCTGGTG (chemistry not given here) [Oligonucleotide duplex 6]” was tested, and the “Activation … of M13mp18 RF1 DNA” value (Nae I [1]) was “-”.

For “GGGTGCCGGCAGGG (chemistry not given here) [SEQ ID NO: 8]”, the “Activation as activating sequence for Nae I” value (Nae I [1]; procedures of Example 1) was 100%.

With `NCCCCNCCCN` [spermidine] the “Spermidine concentration needed to mimic the effect of 1 mM at low salt” value (Nae I [1]; 1 mM Mg2+ and 50 mM Na+) was 6 mM, the “Spermidine concentration at which the switch occurs (inhibition in presence of activating DNA)” value (Nae I [1]; 50 mM NaCl and 10 mM MgCl2) was 8 mM and the “Spermidine concentration at which the switch occurs (inhibition in presence of activating DNA)” value (Nae I [1]; low salt concentration) was 1 mM. For the same compound, the “Effect on cleavage of resistant Nae I sites such as in M13mp18 DNA” value (Nae I [1]; spermidine at 1 mM, low salt) was “greatly activated”, the “Spermidine concentration that switches on Nae I cleavage of resistant sites” value (Nae I [1]; spermidine by itself, low salt conditions) was “about 1 mM” and the “Nae I cleavage of SV40 slow site” value (Nae I [2]) was 17%. The fold induction at 2000 µM (Nae I [3]) was 40.

With “TGGTGGGCGCCGGCGGTGTGGGCA (TTGGTGGGCGCCGGCGGTGTGGGCA; chemistry not given here) [Oligonucleotide duplex 2]” the “Activation … of M13mp18 RF1 DNA” value (Nae I [1]) was “++++”.

For “GGGCGCCGGCGGTG (chemistry not given here) [Oligonucleotide duplex 3]”, the “Activation … of M13mp18 RF1 DNA” value (Nae I [1]) was “++ (key: ++++: full activation; ++: about 50% activation; -: no activation)”.
